# Structures can show the parent of a compound that is named as a salt.
# How the values were obtained:
# [1] = test system: oral cavity and tongue; test: Taste and irritation test by subjects (self-made sample vs reference sample); format: in vivo, human
# Experimental: In the examples, the taste masking effects of test samples were evaluated by the subject's perception of the bitterness and irritation of the oral cavity and tongue. The Taste and Irritation Classification Tested by the Subjects: [table]
# [2] = test system: tongue; test: Comparative Example 2: comparison of taste of solid dispersion, hemihydrobromide powder and marketed drug product (20 subjects); format: in vivo, human; settings: equivalent to 10 mg vortioxetine
# Experimental: The solid dispersion equivalent to 10 mg vortioxetine prepared in Example 9b, vortioxetine hemihydrobromide powder equivalent to 10 mg vortioxetine, and the powder compressed by vortioxetine hydrobromide marketed drug product equivalent to 10 mg of vortioxetine hydrobromide passed through 100 mesh sieve, then they were put directly in front of the upper part of the tongue for one minute. There were 20 subjects in each powder group. After trying one powder taste, rinsed your mouth, and try another powder after there was no irritation. After trying the taste, record the bitterness level and tongue irritation, spit it out a few seconds later, rinse your mouth, record the time for the irritation to subside, eat 1-1.5 hours later, and record the irritation again.
# [3] = Solubility in sodium acetate medium pH 6.8 simulating the oral environment (USP method); format: physicochemical; settings: sodium acetate medium, pH 6.8, aqueous buffer, sodium acetate medium pH 6.8, USP method; read-out: Solubility
# [4] = average of 5 subjects, powder equivalent to 20 mg of vortioxetine
structure (smiles),measurement,setting,value
"Br.Cc1ccc(Sc2ccccc2N2CCNCC2)c(C)c1 [Reference sample (1b), vortioxetine hydrobromide form α]",Instantaneous irritation,"[1]; Subject 1, 0-1 minute, powder equivalent to 20 mg of vortioxetine tasted","+++ (+ + + Strong irritation, intolerable)"
same,Delayed irritation,"[1]; Subject 1, powder equivalent to 20 mg of vortioxetine tasted",>30 min
same,Instantaneous irritation,"[1]; Subject 2, 0-1 minute, powder equivalent to 20 mg of vortioxetine tasted","+++ (+ + + Strong irritation, intolerable)"
same,Delayed irritation,"[1]; Subject 2, powder equivalent to 20 mg of vortioxetine tasted",>30 min
same,Instantaneous irritation,"[1]; Subject 3, 0-1 minute, powder equivalent to 20 mg of vortioxetine tasted","+++ (+ + + Strong irritation, intolerable)"
same,Delayed irritation,"[1]; Subject 3, powder equivalent to 20 mg of vortioxetine tasted",>30 min
same,Instantaneous irritation,"[1]; Subject 4, 0-1 minute, powder equivalent to 20 mg of vortioxetine tasted","+++ (+ + + Strong irritation, intolerable)"
same,Delayed irritation,"[1]; Subject 4, powder equivalent to 20 mg of vortioxetine tasted",>30 min
same,Instantaneous irritation,"[1]; Subject 5, 0-1 minute, powder equivalent to 20 mg of vortioxetine tasted","+++ (+ + + Strong irritation, intolerable)"
same,Delayed irritation,"[1]; Subject 5, powder equivalent to 20 mg of vortioxetine tasted",>30 min
same,"Delayed irritation, time to disappear",[1]; [4],more than 30 minutes
same,Instantaneous irritation,[1]; [4],"+++ (+ + + Strong irritation, intolerable)"
Br.Cc1ccc(Sc2ccccc2N2CCNCC2)c(C)c1.Cc1ccc(Sc2ccccc2N2CCNCC2)c(C)c1 [Vortioxetine hemihydrobromide powder],Number of subjects experiencing different irritation: Basically no irritation,[2],6
same,"Number of subjects experiencing different irritation: Slightly irritating, tolerable",[2]; no irritation after gargling,12^(2)
same,Number of subjects experiencing different irritation: unbearable,"[2]; subside time more than 2 hours, not subsided after eating",2^(1)
Br.Cc1ccc(Sc2ccccc2N2CCNCC2)c(C)c1.Cc1ccc(Sc2ccccc2N2CCNCC2)c(C)c1 [vortioxetine hemihydrobromide],"Delayed irritation, time to disappear",[1]; [4],more than 30 minutes
same,Instantaneous irritation,[1]; [4],"++ (+ + Irritating, tolerable)"
"Cc1ccc(Sc2ccccc2N2CCNCC2)c(C)c1 [vortioxetine hydrobromide, 1-[2-(2,4-dimethyl-phenylsulfanyl)-phenyl]piperazine hydrobromide]",Instantaneous irritation,"[1]; Subject 1, 0-1 minute, powder equivalent to 20 mg of vortioxetine tasted, listed as Reference sample (2b), hydrobromide","+++ (+ + + Strong irritation, intolerable)"
same,Delayed irritation,"[1]; Subject 1, powder equivalent to 20 mg of vortioxetine tasted, listed as Reference sample (2b), hydrobromide",>30 min
same,Delayed irritation,"[1]; Subject 1, powder equivalent to 20 mg of vortioxetine tasted, listed as Reference sample (4b), hydrobromide",>30 min
same,Delayed irritation,"[1]; Subject 1, powder equivalent to 20 mg of vortioxetine tasted, listed as Reference sample (4c), hydrobromide",>30 min
same,Delayed irritation,"[1]; Subject 1, powder equivalent to 20 mg of vortioxetine tasted, listed as Reference sample (7b), hydrobromide",>30 min
same,Instantaneous irritation,"[1]; Subject 2, 0-1 minute, powder equivalent to 20 mg of vortioxetine tasted, listed as Reference sample (2b), hydrobromide","++ (+ + Irritating, tolerable)"
same,Delayed irritation,"[1]; Subject 2, powder equivalent to 20 mg of vortioxetine tasted, listed as Reference sample (2b), hydrobromide",>30 min
same,Delayed irritation,"[1]; Subject 2, powder equivalent to 20 mg of vortioxetine tasted, listed as Reference sample (4b), hydrobromide",>30 min
same,Delayed irritation,"[1]; Subject 2, powder equivalent to 20 mg of vortioxetine tasted, listed as Reference sample (4c), hydrobromide",>30 min
same,Delayed irritation,"[1]; Subject 2, powder equivalent to 20 mg of vortioxetine tasted, listed as Reference sample (7b), hydrobromide",>30 min
same,Instantaneous irritation,"[1]; Subject 3, 0-1 minute, powder equivalent to 20 mg of vortioxetine tasted, listed as Reference sample (2b), hydrobromide","+++ (+ + + Strong irritation, intolerable)"
same,Delayed irritation,"[1]; Subject 3, powder equivalent to 20 mg of vortioxetine tasted, listed as Reference sample (2b), hydrobromide",>30 min
same,Delayed irritation,"[1]; Subject 3, powder equivalent to 20 mg of vortioxetine tasted, listed as Reference sample (4b), hydrobromide",>30 min
same,Delayed irritation,"[1]; Subject 3, powder equivalent to 20 mg of vortioxetine tasted, listed as Reference sample (4c), hydrobromide",>30 min
same,Delayed irritation,"[1]; Subject 3, powder equivalent to 20 mg of vortioxetine tasted, listed as Reference sample (7b), hydrobromide",>30 min
same,Instantaneous irritation,"[1]; Subject 4, 0-1 minute, powder equivalent to 20 mg of vortioxetine tasted, listed as Reference sample (2b), hydrobromide","++ (+ + Irritating, tolerable)"
same,Instantaneous irritation,"[1]; Subject 4, 0-1 minute, powder equivalent to 20 mg of vortioxetine tasted, listed as Reference sample (4b), hydrobromide","+++ (+ + + Strong irritation, intolerable)"
same,Delayed irritation,"[1]; Subject 4, powder equivalent to 20 mg of vortioxetine tasted, listed as Reference sample (2b), hydrobromide",>30 min
same,Delayed irritation,"[1]; Subject 4, powder equivalent to 20 mg of vortioxetine tasted, listed as Reference sample (4b), hydrobromide",>30 min
same,Delayed irritation,"[1]; Subject 4, powder equivalent to 20 mg of vortioxetine tasted, listed as Reference sample (4c), hydrobromide",>30 min
same,Delayed irritation,"[1]; Subject 4, powder equivalent to 20 mg of vortioxetine tasted, listed as Reference sample (7b), hydrobromide",>30 min
same,Instantaneous irritation,"[1]; Subject 5, 0-1 minute, powder equivalent to 20 mg of vortioxetine tasted, listed as Reference sample (2b), hydrobromide","+++ (+ + + Strong irritation, intolerable)"
same,Instantaneous irritation,"[1]; Subject 5, 0-1 minute, powder equivalent to 20 mg of vortioxetine tasted, listed as Reference sample (4b), hydrobromide","+++ (+ + + Strong irritation, intolerable)"
same,Delayed irritation,"[1]; Subject 5, powder equivalent to 20 mg of vortioxetine tasted, listed as Reference sample (2b), hydrobromide",>30 min
same,Delayed irritation,"[1]; Subject 5, powder equivalent to 20 mg of vortioxetine tasted, listed as Reference sample (4b), hydrobromide",>30 min
same,Delayed irritation,"[1]; Subject 5, powder equivalent to 20 mg of vortioxetine tasted, listed as Reference sample (4c), hydrobromide",>30 min
same,Delayed irritation,"[1]; Subject 5, powder equivalent to 20 mg of vortioxetine tasted, listed as Reference sample (7b), hydrobromide",>30 min
same,Instantaneous irritation,"[1]; average of 5 subjects, powder equivalent to 20 mg of vortioxetine, listed as Reference sample (2b), hydrobromide","+++ (+ + + Strong irritation, intolerable)"
same,Instantaneous irritation,"[1]; average of 5 subjects, powder equivalent to 20 mg of vortioxetine, listed as Reference sample (4b), hydrobromide","+++ (+ + + Strong irritation, intolerable)"
same,Instantaneous irritation,"[1]; average of 5 subjects, powder equivalent to 20 mg of vortioxetine, listed as Reference sample (4c), hydrobromide","+++ (+ + + Strong irritation, intolerable)"
same,Instantaneous irritation,"[1]; average of 5 subjects, powder equivalent to 20 mg of vortioxetine, listed as Reference sample (7b), hydrobromide","+++ (+ + + Strong irritation, intolerable)"
same,Instantaneous irritation,"[1]; average of 5 subjects, powder equivalent to 20 mg of vortioxetine, listed as Reference sample (9b), hydrobromide","+++ (+ + + Strong irritation, intolerable)"
same,Instantaneous irritation,"[1]; average of 5 subjects, powder equivalent to 20 mg of vortioxetine, listed as Reference sample (10), hydrobromide","++ (+ + Irritating, tolerable)"
same,Instantaneous irritation,"[1]; average of 5 subjects, powder equivalent to 20 mg of vortioxetine, listed as Reference sample (11b), hydrobromide","+++ (+ + + Strong irritation, intolerable)"
same,Instantaneous irritation,"[1]; average of 5 subjects, powder equivalent to 20 mg of vortioxetine, listed as Reference sample (11c), hydrobromide","+++ (+ + + Strong irritation, intolerable)"
same,Instantaneous irritation,"[1]; average of 5 subjects, powder equivalent to 20 mg of vortioxetine, listed as Reference sample (14b), hydrobromide","+++ (+ + + Strong irritation, intolerable)"
same,solubility,[3],150 µg/mL

# Source: US12642797B2, “Coated granule, solid dispersion, and preparation containing vortioxetine hydrobromide for oral taste masking” (Seasons Biotechnology (Taizhou) Co., Ltd., priority 2019, dated 2026)
